# Reference: ChEMBL document CHEMBL3091347, “Comparison of Multiple Linear Regressions and Neural Networks based QSAR models for the design of new antitubercular compounds” (Eur J Med Chem, 2013)
# Tests used:
# [1] = Lipophilicity, log P of the compound; settings: octanol/water
# [2] = tested on: Mycobacterium tuberculosis; assay: Antitubercular activity against Mycobacterium tuberculosis BCG; assay type: functional
# [3] = tested on: Mycobacterium tuberculosis; assay: Antitubercular activity against Mycobacterium tuberculosis; assay type: functional; settings: for MIC: Mycobacterium tuberculosis
structure (smiles),measurement,setting,value
CC(C)/C=N/NC(=O)c1cccs1,logP,[1]; logP,0.125
same,MIC,[2],1.2 µg/mL
same,log(1/MIC),[2],-0.07918
CCCCCC/C=N/NC(=O)c1cccs1,logP,[1]; logP,1.84
same,MIC,[2],6 µg/mL
same,log(1/MIC),[2],-0.7782
NNC(=O)c1ccc(C(=O)NN)cc1,logP,[1]; logP,-3.83
same,MIC,[2],3 µg/mL
same,log(1/MIC),[2],-0.4771
NNC(=O)C(O)(c1ccccc1)c1ccccc1,logP,[1]; logP,0.196
same,MIC,[2],100 µg/mL
same,log(1/MIC),[2],-2
CCCCCCCCCCCCNNC(=O)c1ccncc1,logP,[1]; logP,3.64
same,MIC,[2],0.05 µg/mL
same,log(1/MIC),[2],1.301
O=C(NNCc1ccco1)c1ccncc1,logP,[1]; logP,-0.641
same,MIC,[2],15 µg/mL
same,log(1/MIC),[2],-1.176
CC(=O)N1CCC(C(=O)NN)CC1,logP,[1]; logP,-3.98
same,MIC,[2],6 µg/mL
same,log(1/MIC),[2],-0.7782
CC(=O)NN,logP,[1]; logP,-2.78
same,MIC,[2],150 µg/mL
same,log(1/MIC),[2],-2.176
NNC(=O)/C=C/C(=O)NN,log(1/MIC),[3],-1.9
same,MIC,[3],80 µg/mL
NNC(=O)CCC(=O)NN,MIC,[2],25 µg/mL
same,log(1/MIC),[2],-1.398
NNC(=O)CCCCCCCCCCC(=O)NN,logP,[1]; logP,-2.03
same,MIC,[2],3 µg/mL
same,log(1/MIC),[2],-0.4771
NNC(=O)C1CCC(C(=O)NN)CC1 (stereo unspecified),logP,[1],-4.55
same,MIC,[2],300 µg/mL
same,log(1/MIC),[2],-2.477
NNC(=O)c1ccc(I)cc1,logP,[1]; logP,0.278
same,MIC,[2],6 µg/mL
same,log(1/MIC),[2],-0.7782
CN(C)c1ccc(C(=O)NN)cc1,logP,[1]; logP,-0.65
same,MIC,[2],6 µg/mL
same,log(1/MIC),[2],-0.7782
O=C(N/N=C(\CO)C(O)C(O)C(O)CO)c1ccncc1 (stereo unspecified),MIC,[2],0.06 µg/mL
same,log(1/MIC),[2],1.222
O=C(N/N=C/C(O)C(O)C(OC1OC(CO)C(O)C(O)C1O)C(O)CO)c1ccncc1 (stereo unspecified),MIC,[2],0.15 µg/mL
same,log(1/MIC),[2],0.8239
CNC1C(OC2C(OC3C(O)C(O)C(NC(=N)N)C(O)C3NC(=N)N)OC(C)C2(O)/C=N\NC(=O)c2ccncc2)OC(CO)C(O)C1O (stereo unspecified),log(1/MIC),[3],0.82
same,MIC,[3],0.15 µg/mL
Cc1ccc(C)n1NC(=O)c1ccncc1,logP,[1]; logP,0.854
same,MIC,[2],10 µg/mL
same,log(1/MIC),[2],-1
O=CNNC(=O)c1ccncc1,logP,[1]; logP,-2.99
same,MIC,[2],3 µg/mL
same,log(1/MIC),[2],-0.4771
CCCCCC/C=N/NC(=O)c1ccncc1,logP,[1]; logP,0.719
same,MIC,[2],0.03 µg/mL
same,log(1/MIC),[2],1.523
C/C=C/CCCCCCC/C=N/NC(=O)c1ccncc1,logP,[1]; logP,2.29
same,MIC,[2],0.15 µg/mL
same,log(1/MIC),[2],0.8239
CCCCCCCCCC/C=N/NC(=O)c1ccncc1,logP,[1]; logP,2.83
same,MIC,[2],0.3 µg/mL
same,log(1/MIC),[2],0.5229
CC1CCC(=NNC(=O)c2ccncc2)CC1 (stereo unspecified),logP,[1]; logP,0.315
same,MIC,[2],0.07 µg/mL
same,log(1/MIC),[2],1.1549
CC(C)COc1ccc(/C=N/NC(=O)c2ccncc2)cc1,logP,[1]; logP,2.81
same,MIC,[2],0.2 µg/mL
same,log(1/MIC),[2],0.699
CC(C)CCOc1ccc(/C=N/NC(=O)c2ccncc2)cc1,logP,[1]; logP,3.34
same,MIC,[2],0.05 µg/mL
same,log(1/MIC),[2],1.301
N/N=C(\CC(=O)c1ccncc1)C(=O)c1ccncc1,logP,[1]; logP,-3.16
same,MIC,[2],15 µg/mL
same,log(1/MIC),[2],-1.176
CC(C(=O)c1ccncc1)C(/C=N/N)C(=O)c1ccncc1 (stereo unspecified),logP,[1]; logP,-2.43
same,MIC,[2],0.5 µg/mL
same,log(1/MIC),[2],0.301
CC(=O)C/C(C)=N/NC(=O)c1ccncc1,logP,[1]; logP,-3.02
same,MIC,[2],0.8 µg/mL
same,log(1/MIC),[2],0.09691
O=C(N/N=C/C(O)C(O)C(O)CO)c1ccncc1 (stereo unspecified),logP,[1],-5.33
same,MIC,[2],0.05 µg/mL
same,log(1/MIC),[2],1.301
O=C(N/N=C\C(O)C(O)C(O)C(O)CO)c1ccncc1 (stereo unspecified),MIC,[2],0.15 µg/mL
same,log(1/MIC),[2],0.8239
CC(=O)Nc1ccc(/C=N\NC(=O)c2ccncc2)cc1,logP,[1]; logP,0.457
same,MIC,[2],0.08 µg/mL
same,log(1/MIC),[2],1.097
CCC(CC)NNC(=O)c1ccncc1,logP,[1]; logP,-0.19
same,MIC,[2],3 µg/mL
same,log(1/MIC),[2],-0.4771
O=C(NNC1CCCCC1)c1ccncc1,logP,[1]; logP,-0.055
same,MIC,[2],5 µg/mL
same,log(1/MIC),[2],-0.699
CC1CCCC(NNC(=O)c2ccncc2)C1 (stereo unspecified),logP,[1]; logP,0.464
same,MIC,[2],4 µg/mL
same,log(1/MIC),[2],-0.6021
CC1CCC(NNC(=O)c2ccncc2)CC1 (stereo unspecified),logP,[1]; logP,0.594
same,MIC,[2],5 µg/mL
same,log(1/MIC),[2],-0.699
NNC(=O)c1cncs1,logP,[1]; logP,-2.2
same,MIC,[2],10 µg/mL
same,log(1/MIC),[2],-1
NNC(=O)C(O)c1ccccc1 (stereo unspecified),logP,[1]; logP,-1.37
same,MIC,[2],40 µg/mL
same,log(1/MIC),[2],-1.602
NNC(=O)Cc1ccc(Cl)cc1,logP,[1]; logP,-0.503
same,MIC,[2],10 µg/mL
same,log(1/MIC),[2],-1
NNC(=O)C1Cc2ccccc2O1 (stereo unspecified),logP,[1]; logP,-1.32
same,MIC,[2],22.5 µg/mL
same,log(1/MIC),[2],-1.352
Cn1cncc1C(=O)NN,logP,[1]; logP,-2.55
same,MIC,[2],300 µg/mL
same,log(1/MIC),[2],-2.477
NNC(=O)c1cscn1,logP,[1]; logP,-2.05
same,MIC,[2],15 µg/mL
same,log(1/MIC),[2],-1.176
O=C(NNC(=O)c1cccs1)c1cccs1,logP,[1]; logP,-0.738
same,MIC,[2],15 µg/mL
same,log(1/MIC),[2],-1.176
NNC(=O)c1cccnc1 [NICOTINIC ACID HYDRAZIDE],logP,[1],-2.32
same,MIC,[2],2 µg/mL
same,log(1/MIC),[2],-0.301
NNC(=O)c1cnccn1 [PYRAZINE CARBOXYLIC ACID HYDRAZIDE],logP,[1]; logP,-2.87
same,MIC,[2],1.5 µg/mL
same,log(1/MIC),[2],-0.1761
